Test results as given in patent US11603373B2, “TDO2 and IDO1 inhibitors” (Genentech, Inc., priority 2017, dated 2023).

Assays:
[1] = target: T1, IDO1 (A172+IFNg cells, high IDO expressing cells) (Homo sapiens, UniProt P14902); assay: NFK GreenScreen cell assay, inhibition of IDO in A172+IFNg cells; assay type: cell-based; conditions: read-out: IDO cell Fluor EC50
T1 construct: A172+IFNg cells (high IDO expressing cells); endogenous in cells; host or cells: A172 cells induced with 100 ng/ml IFNγ
T1 sequence (P14902 whole entry): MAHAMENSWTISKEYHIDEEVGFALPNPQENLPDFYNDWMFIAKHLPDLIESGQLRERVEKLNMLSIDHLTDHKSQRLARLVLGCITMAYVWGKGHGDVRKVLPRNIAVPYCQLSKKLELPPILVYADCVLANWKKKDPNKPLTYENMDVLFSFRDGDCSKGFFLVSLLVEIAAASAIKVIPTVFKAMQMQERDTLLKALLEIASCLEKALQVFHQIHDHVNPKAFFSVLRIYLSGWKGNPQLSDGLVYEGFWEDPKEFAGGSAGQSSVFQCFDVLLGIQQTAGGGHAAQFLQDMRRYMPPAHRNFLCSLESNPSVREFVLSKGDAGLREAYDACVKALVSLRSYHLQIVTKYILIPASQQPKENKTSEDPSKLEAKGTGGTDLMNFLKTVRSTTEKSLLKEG
Text: (§1) Cells are counted on a Vi-Cell (Beckman Coulter). […] The final DMSO concentration is 0.5%.

[2] = target: T2, TDO2 (SW48 cells, high TDO expressing cells) (Homo sapiens, UniProt P48775); assay: NFK GreenScreen cell assay, inhibition of TDO in SW48 cells; assay type: cell-based; conditions: read-out: TDO2 Cell Fluor EC50
T2 construct: SW48 cells (high TDO expressing cells); endogenous in cells; host or cells: SW48 cells
T2 sequence (P48775 whole entry): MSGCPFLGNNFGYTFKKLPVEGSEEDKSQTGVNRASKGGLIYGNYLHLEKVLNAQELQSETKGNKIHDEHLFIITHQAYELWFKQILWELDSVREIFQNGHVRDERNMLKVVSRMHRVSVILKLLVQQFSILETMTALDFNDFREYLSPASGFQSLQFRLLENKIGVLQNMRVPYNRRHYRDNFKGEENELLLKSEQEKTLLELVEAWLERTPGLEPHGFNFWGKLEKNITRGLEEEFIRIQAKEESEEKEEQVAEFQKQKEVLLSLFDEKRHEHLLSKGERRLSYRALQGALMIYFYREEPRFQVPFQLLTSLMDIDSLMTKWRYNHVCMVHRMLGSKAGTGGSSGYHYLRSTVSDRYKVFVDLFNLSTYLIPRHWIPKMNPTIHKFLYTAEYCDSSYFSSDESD
Text: as §1

Row | EC50 [1] | EC50 [2] | Structure (SMILES)
1 | 48 nM | 120 nM | O=S(=O)(CF)N1CCC2(CC1)C[C@@H]([C@H]1c3ccccc3-c3cncn31)[C@H]2O (single isomer, unassigned) [Example 8b]
2 | 18000 nM | 21000 nM | COC(=O)N1CCC2(CC[C@@H]([C@H]3c4ccccc4-c4cncn43)[C@H]2O)CC1 (single isomer, unassigned) [Example 9a]
3 | 130 nM | 100 nM | COC(=O)N1CCC2(CC[C@H]([C@@H]3c4ccccc4-c4cncn43)[C@@H]2O)CC1 (single isomer, unassigned) [Example 9b]
4 | 240 nM | 170 nM | CC(=O)N1CCC2(CC[C@H]([C@@H]3c4ccccc4-c4cncn43)[C@@H]2O)CC1 (single isomer, unassigned) [Example 10b]
5 | 20000 nM | 660 nM | NS(=O)(=O)N1CCC2(CC1)C[C@H]([C@@H]1c3ccccc3-c3cncn31)[C@@H]2O (single isomer, unassigned) [Example 11a]
6 | 6800 nM | 12000 nM | NS(=O)(=O)N1CCC2(CC1)C[C@@H]([C@@H]1c3ccccc3-c3cncn31)[C@H]2O (single isomer, unassigned) [Example 11e]
7 | 58.5 nM | 182 nM | NS(=O)(=O)N1CCC2(CC1)C[C@H]([C@H]1c3ccccc3-c3cncn31)[C@@H]2O (single isomer, unassigned) [Example 11f]
8 | 4700 nM | 930 nM | NS(=O)(=O)N1CCC2(CC1)C[C@H]([C@H]1c3ccccc3-c3cncn31)[C@H]2O (single isomer, unassigned) [Example 11g]
9 | 8100 nM | 21000 nM | CC(C)(C)OC(=O)N1[C@@H]2CC[C@H]1C[C@@]1(C[C@@H]([C@H]3c4ccccc4-c4cncn43)[C@H]1O)C2 (single isomer, unassigned) [Example 12b]
10 | 1900 nM | 520 nM | CC(C)(C)OC(=O)N1[C@@H]2CC[C@H]1C[C@]1(C[C@H]([C@H]3c4ccccc4-c4cncn43)[C@@H]1O)C2 (single isomer, unassigned) [Example 12c]
11 | 4300 nM | 9800 nM | CC(C)(C)OC(=O)N1[C@@H]2CC[C@H]1C[C@@]1(C[C@@H]([C@@H]3c4ccccc4-c4cncn43)[C@H]1O)C2 (single isomer, unassigned) [Example 12d]
12 | 3900 nM | 1500 nM | CC(C)(C)OC(=O)N1[C@@H]2CC[C@H]1C[C@]1(C[C@@H]([C@@H]3c4ccccc4-c4cncn43)[C@@H]1O)C2 (single isomer, unassigned) [Example 12e]
13 | 1900 nM | 11000 nM | CC(C)(C)OC(=O)N1[C@@H]2CC[C@H]1C[C@@]1(C[C@H]([C@H]3c4ccccc4-c4cncn43)[C@H]1O)C2 (single isomer, unassigned) [Example 12f]
14 | 4700 nM | 2100 nM | CC(C)(C)OC(=O)N1[C@@H]2CC[C@H]1C[C@]1(C[C@H]([C@@H]3c4ccccc4-c4cncn43)[C@H]1O)C2 (single isomer, unassigned) [Example 12g]
15 | 7000 nM | 13000 nM | CC(C)(C)OC(=O)N1[C@@H]2CC[C@H]1C[C@@]1(C[C@@H]([C@H]3c4ccccc4-c4cncn43)[C@@H]1O)C2 (single isomer, unassigned) [Example 12h]
16 | 5800 nM | 13000 nM | CC(C)(C)OC(=O)N1[C@@H]2CC[C@H]1C[C@@]1(C[C@H]([C@@H]3c4ccccc4-c4cncn43)[C@@H]1O)C2 (single isomer, unassigned) [Example 12i]
17 | 120 nM | 740 nM | CC(C)(C)OC(=O)N1[C@@H]2CC[C@H]1C[C@]1(C[C@@H]([C@H]3c4ccccc4-c4cncn43)[C@H]1O)C2 (single isomer, unassigned) [Example 12j]
18 | 13000 nM | 15000 nM | CC(C)(C)OC(=O)N1[C@@H]2CC[C@H]1C[C@@]1(C[C@H]([C@H]3c4ccccc4-c4cncn43)[C@@H]1O)C2 (single isomer, unassigned) [Example 12k]
19 | 12000 nM | 410 nM | CC(C)(C)OC(=O)N1[C@@H]2CC[C@H]1C[C@]1(C[C@@H]([C@@H]3c4ccccc4-c4cncn43)[C@H]1O)C2 (single isomer, unassigned) [Example 12l]
20 | 2000 nM | 15000 nM | CC(C)(C)OC(=O)N1[C@@H]2CC[C@H]1C[C@@]1(C[C@@H]([C@@H]3c4ccccc4-c4cncn43)[C@@H]1O)C2 (single isomer, unassigned) [Example 12m]
21 | 7200 nM | 3300 nM | O=S1(=O)CCC2(CC[C@H]([C@@H]3c4ccccc4-c4cncn43)[C@@H]2O)CC1 (single isomer, unassigned) [Example 13b]

Row | EC50 [1] | EC50 [2] | Structure (SMILES)
22 | 68 nM | 130 nM | O=S(=O)(C(F)F)N1CCC2(CC1)C[C@@H]([C@H]1c3ccccc3-c3cncn31)[C@H]2O (single isomer, unassigned) [Example 14b]
23 | 1300 nM | 670 nM | CC(=O)N1CC2(CC[C@H]([C@@H]3c4ccccc4-c4cncn43)[C@H]2O)C1 (single isomer, unassigned) [Example 17]
24 | 580 nM | 110 nM | NS(=O)(=O)N1CC2(CC[C@H]([C@@H]3c4ccccc4-c4cncn43)[C@H]2O)C1 (single isomer, unassigned) [Example 18]
25 | 99 nM | 94 nM | COCCOC(=O)N1CCC2(CC[C@@H]([C@H]3c4ccccc4-c4cncn43)[C@H]2O)CC1 (single isomer, unassigned) [Example 19]
26 | 12000 nM | 5000 nM | CC(C)(C)OC(=O)N1CC2CCC(C1)C21C[C@@H]([C@H]2c3ccccc3-c3cncn32)[C@H]1O (single isomer, unassigned) [Example 22b]
27 | 4400 nM | 6900 nM | CC(C)(C)OC(=O)N[C@H]1CC[C@@]2(CC1)C[C@H]([C@@H]1c3ccccc3-c3cncn31)[C@H]2O (single isomer, unassigned) [Example 24a]
28 | 1300 nM | 2100 nM | CC(C)(C)OC(=O)N[C@H]1CC[C@@]2(CC1)C[C@@H]([C@H]1c3ccccc3-c3cncn31)[C@@H]2O (single isomer, unassigned) [Example 24b]
29 | 5200 nM | 730 nM | CC(C)(C)OC(=O)N[C@H]1CC[C@]2(CC1)C[C@H]([C@@H]1c3ccccc3-c3cncn31)[C@H]2O (single isomer, unassigned) [Example 24c]
30 | 1100 nM | 2500 nM | CC(C)(C)OC(=O)N[C@H]1CC[C@@]2(CC1)C[C@@H]([C@@H]1c3ccccc3-c3cncn31)[C@H]2O (single isomer, unassigned) [Example 24d]
31 | 10000 nM | 16000 nM | CC(C)(C)OC(=O)N[C@H]1CC[C@@]2(CC1)C[C@H]([C@H]1c3ccccc3-c3cncn31)[C@@H]2O (single isomer, unassigned) [Example 24e]
32 | 5400 nM | 16000 nM | CC(C)(C)OC(=O)N[C@H]1CC[C@]2(CC1)C[C@@H]([C@@H]1c3ccccc3-c3cncn31)[C@@H]2O (single isomer, unassigned) [Example 24h]
33 | 960 nM | 260 nM | CC(C)(C)OC(=O)N[C@H]1CC[C@]2(CC1)C[C@H]([C@H]1c3ccccc3-c3cncn31)[C@H]2O (single isomer, unassigned) [Example 24i]
34 | 640 nM | 140 nM | CC(C)(C)OC(=O)N[C@H]1CC[C@@]2(CC1)C[C@@H]([C@H]1c3ccccc3-c3cncn31)[C@@H]2O (single isomer, unassigned) [Example 24j]
35 | 1900 nM | 8600 nM | CC(C)(C)OC(=O)N[C@H]1CC[C@@]2(CC1)C[C@@H]([C@H]1c3ccccc3-c3cncn31)[C@H]2O (single isomer, unassigned) [Example 24l]
36 | 240 nM | 1100 nM | CC(C)(C)OC(=O)N[C@H]1CC[C@]2(CC1)C[C@H]([C@H]1c3ccccc3-c3cncn31)[C@@H]2O (single isomer, unassigned) [Example 24n]
37 | 920 nM | 3300 nM | CC(C)(C)OC(=O)N[C@H]1CC[C@@]2(CC1)C[C@H]([C@@H]1c3ccccc3-c3cncn31)[C@@H]2O (single isomer, unassigned) [Example 24p]
38 | 34 nM | 81 nM | O=C([C@@H]1CC1(F)F)N1CCC2(CC[C@@H]([C@H]3c4ccccc4-c4cncn43)[C@H]2O)CC1 (single isomer, unassigned) [Example 25a]
39 | 160 nM | 150 nM | O=C([C@H]1CC1(F)F)N1CCC2(CC[C@@H]([C@H]3c4ccccc4-c4cncn43)[C@H]2O)CC1 (single isomer, unassigned) [Example 25b]
40 | 220 nM | 95 nM | CS(=O)(=O)N1CC2(CCC(C3c4ccccc4-c4cncn43)C2O)C1 (single isomer, unassigned) [compound 16, 6-(5H imidazo[5,1-a]isoindol-5-yl)-2-(methylsulfonyl)-2-azaspiro[3.4]octan-5-ol]
41 | 2800 nM | 2000 nM | O=S(=O)(c1c[nH]cn1)N1CCC2(CCC(C3c4ccccc4-c4cncn43)C2O)CC1 (single isomer, unassigned) [compound 59, 8-((1H-imidazol-4-yl)sulfonyl)-2-(5H-imidazo[5,1-a]isoindol-5-yl)-8-azaspiro[4.5]decan-1-ol]
42 | 40 nM | 56 nM | O=C(OCC(F)F)N1CCC2(CCC(C3c4ccccc4-c4cncn43)C2O)CC1 (single isomer, unassigned) [compound 60, 2,2-difluoroethyl 1-hydroxy-2-(5H-imidazo[5,1-a]isoindol-5-yl)-8-azaspiro[4.5]decane-8-carboxylate]

Row | Structure (SMILES) | EC50 [1] | EC50 [2]
43 | CP(C)(=O)N1CCC2(CC1)C[C@@H]([C@H]1c3ccccc3-c3cncn31)[C@H]2O (single isomer, unassigned) [Example 15b] | 1100 nM | 1500 nM
